Experimental data taken from ChEMBL document CHEMBL1201862, “PubChem BioAssay data set” (2004).
Blank lines part the entries; values can stand above or below the compound they belong to. Active and inactive are the calls of the source.

Columns and labels:
[1] = A549 cell cytotoxicity, dose response, cytotoxicity control, plate reader, cherry-pick, antagonist series (AID 743412); format: functional, cell-based
[2] = Shn3 3'UTR reporter inhibitors, dose response, cell-based, Clone20 osteoblasts, firefly luciferase, cherry-picked (AID 624132); format: functional;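 note: firefly luciferase luminescence from reporter carrying the Shn3 3'UTR in osteoblasts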
[3] = biological target: Dual specificity tyrosine-phosphorylation-regulated kinase 1A (Rattus norvegicus, UniProt Q63470); format: biochemical, Homo sapiens
[4] = HEK293 cell cytotoxicity, dose response, cytotoxicity control, plate reader, cherry-picked samples (AID 743446); format: functional, cell-based
Cysteine protease ATG4B = Cysteine protease ATG4B (Homo sapiens, UniProt Q9Y4P1); format: functional;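 note: Fluorescence-based dose-response confirmation assay measuring inhibition of ATG4B activity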
[5] = biological target: T1, Sentrin-specific protease 6 (Homo sapiens, UniProt Q9GZR1); format: functional;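 note: Luminescence-based dose-response confirmatory assay of SENP6 inhibition, following up an ultra-high-throughput screen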
T1 sequence (Q9GZR1 whole entry): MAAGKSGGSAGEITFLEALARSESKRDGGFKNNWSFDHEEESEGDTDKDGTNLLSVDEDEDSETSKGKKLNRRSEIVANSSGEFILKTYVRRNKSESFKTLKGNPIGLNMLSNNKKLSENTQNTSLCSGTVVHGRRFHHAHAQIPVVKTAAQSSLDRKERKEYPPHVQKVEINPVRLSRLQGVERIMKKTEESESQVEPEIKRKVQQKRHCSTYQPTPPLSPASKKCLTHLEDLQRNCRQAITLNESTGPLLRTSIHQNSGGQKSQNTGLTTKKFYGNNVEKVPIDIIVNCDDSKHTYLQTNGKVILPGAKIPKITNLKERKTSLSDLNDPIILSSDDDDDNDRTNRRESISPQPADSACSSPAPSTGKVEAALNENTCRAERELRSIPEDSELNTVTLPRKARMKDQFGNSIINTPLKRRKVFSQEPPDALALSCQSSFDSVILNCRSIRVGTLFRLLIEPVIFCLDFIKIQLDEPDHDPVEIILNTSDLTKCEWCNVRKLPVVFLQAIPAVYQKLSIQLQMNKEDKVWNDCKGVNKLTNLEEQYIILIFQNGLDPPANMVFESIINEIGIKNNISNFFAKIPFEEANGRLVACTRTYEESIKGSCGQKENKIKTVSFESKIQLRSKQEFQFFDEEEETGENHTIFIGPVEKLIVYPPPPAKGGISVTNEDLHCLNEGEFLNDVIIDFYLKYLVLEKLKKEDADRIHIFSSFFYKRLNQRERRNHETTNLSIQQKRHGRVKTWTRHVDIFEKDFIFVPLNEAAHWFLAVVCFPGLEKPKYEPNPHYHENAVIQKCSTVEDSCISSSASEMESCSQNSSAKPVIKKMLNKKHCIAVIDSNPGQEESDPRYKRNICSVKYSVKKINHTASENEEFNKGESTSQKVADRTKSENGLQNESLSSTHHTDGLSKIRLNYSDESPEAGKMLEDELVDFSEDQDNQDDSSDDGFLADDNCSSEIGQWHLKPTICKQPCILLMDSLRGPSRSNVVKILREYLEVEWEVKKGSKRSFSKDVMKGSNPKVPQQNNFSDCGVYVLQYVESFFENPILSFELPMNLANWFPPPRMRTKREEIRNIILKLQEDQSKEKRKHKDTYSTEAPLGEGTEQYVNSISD

[6] = biological target: T2, Sentrin-specific protease 8 (Homo sapiens, UniProt Q96LD8); format: functional;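 note: luminescence read-out of SENP8 inhibition, dose-response confirmation following an ultra-high-throughput screen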
T2 sequence (Q96LD8 whole entry): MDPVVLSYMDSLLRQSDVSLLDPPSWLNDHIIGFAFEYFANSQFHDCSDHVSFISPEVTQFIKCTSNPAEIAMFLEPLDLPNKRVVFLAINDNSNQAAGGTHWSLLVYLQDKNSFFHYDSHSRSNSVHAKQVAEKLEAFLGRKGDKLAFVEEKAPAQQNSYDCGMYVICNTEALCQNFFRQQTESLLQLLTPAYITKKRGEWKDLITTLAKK

[7] = biological target: Homeodomain-interacting protein kinase 2 (Homo sapiens, UniProt Q9H2X6); format: functional;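 note: measured within a kinome-wide kinase profiling panel, HIPK2 being one panel member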
[8] = biological target: Glycogen synthase kinase-3 beta (Homo sapiens, UniProt P49841); format: functional;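 note: value comes from a broad kinome profiling panel, with GSK3B as the panel member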
[9] = biological target: Serine/threonine-protein kinase pim-1 (Homo sapiens, UniProt P11309); format: functional
[10] = biological target: Serine/threonine-protein kinase pim-2 (Homo sapiens, UniProt Q9P1W9); format: functional;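 note: value comes from a broad kinase panel profiling study in which PIM2 was one of the panel members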
[11] = biological target: MAP kinase-activated protein kinase 3 (Homo sapiens, UniProt Q16644); format: functional;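 note: value comes from a kinome-wide profiling panel in which MAPKAPK3 is one of the panel members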
[12] = biological target: Serine/threonine-protein kinase PLK4 (Homo sapiens, UniProt O00444); format: functional;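 note: PLK4 measured as one member of a kinome-wide kinase profiling panel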
[13] = biological target: Cyclin-dependent kinase 2 (Homo sapiens, UniProt P24941); format: functional;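 note: CDK2 measured as one member of a broad kinome profiling panel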
[14] = biological target: MAP kinase-activated protein kinase 2 (Homo sapiens, UniProt P49137); format: functional;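 note: measured as one member of a kinome-wide kinase panel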
[15] = biological target: Mitogen-activated protein kinase kinase kinase kinase 5 (Homo sapiens, UniProt Q9Y4K4); format: functional;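 note: measured as one member of a kinome-spanning kinase panel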
[16] = biological target: Mitogen-activated protein kinase 12 (Homo sapiens, UniProt P53778); format: functional;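 note: measured as one member of a kinome-wide kinase profiling panel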
[17] = biological target: Rho-associated protein kinase 1 (Homo sapiens, UniProt Q13464); format: functional;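 note: measured within a broad kinome-wide panel profiling many kinases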
[18] = biological target: Tyrosine-protein kinase JAK3 (Homo sapiens, UniProt P52333); format: functional
[19] = biological target: Serine/threonine-protein kinase DCLK1 (Homo sapiens, UniProt O15075); format: functional;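 note: affinity for DCLK1 (listed as DCAMKL1) measured as one member of a kinome-wide kinase profiling panel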
[20] = biological target: Cyclin-dependent kinase 19 (Homo sapiens, UniProt Q9BWU1); test: Navigating the Kinome. Panel member name: CDC2L6; format: functional

Sequence of MAP kinase-activated protein kinase 3 (Q16644 whole entry): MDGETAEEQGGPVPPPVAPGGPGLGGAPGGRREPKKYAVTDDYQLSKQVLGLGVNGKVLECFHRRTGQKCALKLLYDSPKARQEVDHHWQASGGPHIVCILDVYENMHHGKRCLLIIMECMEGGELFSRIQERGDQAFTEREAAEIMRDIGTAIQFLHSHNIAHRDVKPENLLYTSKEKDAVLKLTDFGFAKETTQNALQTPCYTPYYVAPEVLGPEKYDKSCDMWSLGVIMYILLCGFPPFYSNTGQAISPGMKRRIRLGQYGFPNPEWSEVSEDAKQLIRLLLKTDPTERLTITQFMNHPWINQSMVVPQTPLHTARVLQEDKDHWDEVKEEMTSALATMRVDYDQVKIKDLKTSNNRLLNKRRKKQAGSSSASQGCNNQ
Sequence of Mitogen-activated protein kinase kinase kinase kinase 5 (Q9Y4K4 whole entry): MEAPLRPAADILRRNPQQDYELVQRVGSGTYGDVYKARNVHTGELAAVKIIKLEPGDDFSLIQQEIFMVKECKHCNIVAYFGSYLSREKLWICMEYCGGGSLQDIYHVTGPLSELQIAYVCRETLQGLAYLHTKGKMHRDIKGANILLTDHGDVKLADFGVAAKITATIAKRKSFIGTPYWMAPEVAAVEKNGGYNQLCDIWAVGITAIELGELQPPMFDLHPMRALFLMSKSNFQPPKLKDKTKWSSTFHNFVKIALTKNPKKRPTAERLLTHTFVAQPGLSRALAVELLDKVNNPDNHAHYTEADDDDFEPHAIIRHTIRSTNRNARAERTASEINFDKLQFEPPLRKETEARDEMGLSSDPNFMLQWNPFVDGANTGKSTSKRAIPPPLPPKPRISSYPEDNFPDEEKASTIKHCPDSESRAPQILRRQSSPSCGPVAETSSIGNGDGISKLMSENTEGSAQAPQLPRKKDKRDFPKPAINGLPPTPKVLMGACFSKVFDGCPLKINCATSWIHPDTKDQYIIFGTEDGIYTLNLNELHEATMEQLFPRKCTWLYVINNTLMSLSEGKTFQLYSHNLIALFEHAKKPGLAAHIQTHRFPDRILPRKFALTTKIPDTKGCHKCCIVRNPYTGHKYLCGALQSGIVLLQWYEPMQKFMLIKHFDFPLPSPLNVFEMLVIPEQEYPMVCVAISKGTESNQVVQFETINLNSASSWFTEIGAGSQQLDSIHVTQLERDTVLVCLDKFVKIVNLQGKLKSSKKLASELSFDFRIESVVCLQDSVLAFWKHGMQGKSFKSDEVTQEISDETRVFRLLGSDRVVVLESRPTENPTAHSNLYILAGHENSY
Sequence of Homeodomain-interacting protein kinase 2 (Q9H2X6 whole entry): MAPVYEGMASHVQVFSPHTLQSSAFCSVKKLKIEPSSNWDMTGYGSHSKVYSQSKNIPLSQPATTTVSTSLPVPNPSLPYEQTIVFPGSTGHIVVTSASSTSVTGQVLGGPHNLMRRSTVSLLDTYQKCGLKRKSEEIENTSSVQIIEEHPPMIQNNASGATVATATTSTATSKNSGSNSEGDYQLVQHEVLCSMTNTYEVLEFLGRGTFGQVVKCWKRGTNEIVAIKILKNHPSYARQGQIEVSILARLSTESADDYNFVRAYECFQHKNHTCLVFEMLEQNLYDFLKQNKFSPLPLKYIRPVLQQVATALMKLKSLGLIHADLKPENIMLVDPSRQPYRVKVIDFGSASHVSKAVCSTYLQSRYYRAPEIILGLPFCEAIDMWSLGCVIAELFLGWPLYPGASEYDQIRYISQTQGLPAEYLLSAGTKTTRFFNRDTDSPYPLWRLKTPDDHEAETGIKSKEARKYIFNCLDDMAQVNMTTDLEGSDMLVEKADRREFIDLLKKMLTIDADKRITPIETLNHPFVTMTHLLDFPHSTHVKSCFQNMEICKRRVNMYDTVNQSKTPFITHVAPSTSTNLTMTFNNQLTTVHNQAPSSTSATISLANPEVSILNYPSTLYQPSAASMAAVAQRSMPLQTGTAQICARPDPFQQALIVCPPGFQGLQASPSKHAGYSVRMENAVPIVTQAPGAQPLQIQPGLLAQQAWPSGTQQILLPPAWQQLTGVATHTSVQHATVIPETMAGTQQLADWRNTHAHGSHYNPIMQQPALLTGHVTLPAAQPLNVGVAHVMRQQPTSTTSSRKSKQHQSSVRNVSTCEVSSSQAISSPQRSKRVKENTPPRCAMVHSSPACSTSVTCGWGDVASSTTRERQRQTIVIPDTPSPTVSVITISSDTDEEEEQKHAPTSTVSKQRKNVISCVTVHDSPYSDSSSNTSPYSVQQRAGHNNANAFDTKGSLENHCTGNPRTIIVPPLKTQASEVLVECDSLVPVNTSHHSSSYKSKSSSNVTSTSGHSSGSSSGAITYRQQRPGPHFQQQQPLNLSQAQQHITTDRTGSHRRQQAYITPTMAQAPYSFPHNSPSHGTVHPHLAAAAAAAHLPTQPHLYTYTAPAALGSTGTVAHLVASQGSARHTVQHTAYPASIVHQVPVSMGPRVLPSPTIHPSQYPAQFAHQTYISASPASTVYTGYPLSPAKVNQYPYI
Sequence of Glycogen synthase kinase-3 beta (P49841 whole entry): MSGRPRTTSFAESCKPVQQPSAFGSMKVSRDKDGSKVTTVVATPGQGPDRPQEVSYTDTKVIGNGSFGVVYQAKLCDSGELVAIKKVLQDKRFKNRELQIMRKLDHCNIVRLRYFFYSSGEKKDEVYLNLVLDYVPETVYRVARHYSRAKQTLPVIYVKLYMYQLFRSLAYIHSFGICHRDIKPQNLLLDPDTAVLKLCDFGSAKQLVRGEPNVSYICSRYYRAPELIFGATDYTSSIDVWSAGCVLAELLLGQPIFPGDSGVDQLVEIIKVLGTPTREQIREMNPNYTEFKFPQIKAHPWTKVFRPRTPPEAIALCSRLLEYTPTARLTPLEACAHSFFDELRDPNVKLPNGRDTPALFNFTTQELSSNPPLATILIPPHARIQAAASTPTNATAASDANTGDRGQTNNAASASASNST
Sequence of Serine/threonine-protein kinase PLK4 (O00444 whole entry): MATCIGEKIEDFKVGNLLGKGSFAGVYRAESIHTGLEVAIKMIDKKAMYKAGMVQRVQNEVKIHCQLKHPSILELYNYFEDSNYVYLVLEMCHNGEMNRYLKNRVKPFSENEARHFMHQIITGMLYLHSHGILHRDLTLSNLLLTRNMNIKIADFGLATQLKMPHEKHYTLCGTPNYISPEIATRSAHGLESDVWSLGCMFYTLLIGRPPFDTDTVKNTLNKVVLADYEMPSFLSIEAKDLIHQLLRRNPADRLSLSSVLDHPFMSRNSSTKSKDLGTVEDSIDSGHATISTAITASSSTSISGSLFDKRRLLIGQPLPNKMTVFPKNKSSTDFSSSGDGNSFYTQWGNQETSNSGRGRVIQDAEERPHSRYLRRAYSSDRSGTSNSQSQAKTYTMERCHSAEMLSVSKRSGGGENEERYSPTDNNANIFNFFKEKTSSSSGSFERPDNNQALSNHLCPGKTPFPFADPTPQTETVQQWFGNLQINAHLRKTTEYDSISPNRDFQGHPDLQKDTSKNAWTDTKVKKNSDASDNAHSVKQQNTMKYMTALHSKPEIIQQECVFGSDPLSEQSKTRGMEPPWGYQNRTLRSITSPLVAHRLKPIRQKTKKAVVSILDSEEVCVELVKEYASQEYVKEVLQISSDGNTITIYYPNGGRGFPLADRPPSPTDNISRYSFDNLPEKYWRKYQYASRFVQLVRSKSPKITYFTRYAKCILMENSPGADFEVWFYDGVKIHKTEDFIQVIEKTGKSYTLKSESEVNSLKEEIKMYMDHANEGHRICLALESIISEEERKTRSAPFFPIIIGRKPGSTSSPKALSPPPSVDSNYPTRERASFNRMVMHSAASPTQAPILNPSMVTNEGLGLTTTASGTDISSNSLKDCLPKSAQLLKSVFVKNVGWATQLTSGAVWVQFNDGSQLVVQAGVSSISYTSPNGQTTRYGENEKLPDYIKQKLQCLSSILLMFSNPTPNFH
Sequence of MAP kinase-activated protein kinase 2 (P49137 whole entry): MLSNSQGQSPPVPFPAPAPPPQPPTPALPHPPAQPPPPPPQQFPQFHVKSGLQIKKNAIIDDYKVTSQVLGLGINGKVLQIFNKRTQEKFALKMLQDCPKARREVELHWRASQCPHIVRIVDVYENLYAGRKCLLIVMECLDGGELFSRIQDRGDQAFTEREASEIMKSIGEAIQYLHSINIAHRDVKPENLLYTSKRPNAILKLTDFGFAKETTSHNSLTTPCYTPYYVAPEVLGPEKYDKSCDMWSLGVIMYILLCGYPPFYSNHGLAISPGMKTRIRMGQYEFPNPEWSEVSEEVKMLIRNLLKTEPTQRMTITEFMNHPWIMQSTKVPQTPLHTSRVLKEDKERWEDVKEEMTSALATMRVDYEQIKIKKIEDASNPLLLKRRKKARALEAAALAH
Sequence of Serine/threonine-protein kinase pim-1 (P11309 whole entry): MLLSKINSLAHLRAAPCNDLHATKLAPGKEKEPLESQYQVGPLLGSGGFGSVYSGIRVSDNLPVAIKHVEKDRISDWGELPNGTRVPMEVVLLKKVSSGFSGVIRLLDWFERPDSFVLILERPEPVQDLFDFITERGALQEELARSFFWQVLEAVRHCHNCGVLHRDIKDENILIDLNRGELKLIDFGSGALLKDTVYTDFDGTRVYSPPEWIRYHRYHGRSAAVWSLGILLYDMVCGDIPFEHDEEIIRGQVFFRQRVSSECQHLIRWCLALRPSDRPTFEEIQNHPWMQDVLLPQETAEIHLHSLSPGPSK
Sequence of Serine/threonine-protein kinase pim-2 (Q9P1W9 whole entry): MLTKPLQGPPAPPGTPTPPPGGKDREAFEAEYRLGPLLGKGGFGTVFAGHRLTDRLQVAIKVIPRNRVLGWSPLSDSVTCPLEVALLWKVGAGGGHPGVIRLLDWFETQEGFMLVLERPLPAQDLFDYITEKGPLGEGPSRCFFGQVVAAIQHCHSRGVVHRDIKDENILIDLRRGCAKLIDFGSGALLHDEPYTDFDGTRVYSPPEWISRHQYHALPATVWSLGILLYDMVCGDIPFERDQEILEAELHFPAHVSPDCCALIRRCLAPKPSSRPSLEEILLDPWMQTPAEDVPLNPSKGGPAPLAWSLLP

SMILES: CCCc1nc2c(=O)n(C)c(=O)nc-2n(C)n1
AC50 [1]: 6.05 µM (active)
AC50 [2]: 2.17 µM (active)
AC50 [3]: 0.249 µM (active)
AC50 [4]: 27.1 µM (active)
IC50 (Cysteine protease ATG4B): 2.84 µM (active)

IC50 [5]: 11.6 µM (active)
SMILES: CC(=O)c1ccc(NC2=C(N3CCOCC3)C(=O)c3ccccc3C2=O)cc1
IC50 [6]: 18.8 µM (active)

Ki [7]: > 3.16 µM (inactive)
Ki [8]: 2 µM (active)
Ki [9]: > 10 µM (inactive)
Ki [10]: > 1.58 µM (inactive)
Ki [11]: > 10 µM (inactive)
Ki [12]: 0.2 µM (active)
Ki [13]: > 7.94 µM (inactive)
Ki [14]: > 7.94 µM (inactive)
Ki [15]: 0.2 µM (active)
Ki [16]: > 6.31 µM (inactive)
Ki [17]: > 10 µM (inactive)
Ki [18]: 0.2 µM (active)
Ki [19]: > 10 µM (inactive)
Ki [20]: > 100 µM (inactive)
SMILES: COc1cc2ncn(-c3cc(OCc4ccccc4C(F)(F)F)c(C(N)=O)s3)c2cc1OC [GW843682X]
